PMC7024253, “New Napyradiomycin Analogues from Streptomyces sp. Strain CA-271078” (Marine Drugs, 2019)
pIC50: −log10 of the molar value. ≈ marks a conversion by molar mass, not a printed value. Read-outs that look alike come from different tables or passages of the source.

Key:
[1] = system: methicillin-resistant S. aureus (MRSA) MB5393; experiment: Antibacterial assay against MRSA; assay type: cell-based, Staphylococcus aureus; conditions: for MIC: Staphylococcus aureus; for MIC / MIC MRSA: MIC = lowest concentration inhibiting ≥ 95% of growth after overnight incubation, top concentration 96 μg/mL (64 μg/mL for 3 and 8)
M. tuberculosis H37Ra = experiment: Antibacterial assay against M. tuberculosis; assay type: cell-based, Mycobacterium tuberculosis; conditions: for MIC: Mycobacterium tuberculosis; for MIC / MIC Mt: M. tuberculosis H37Ra, MIC = lowest concentration inhibiting ≥ 95% of growth, top concentration 96 μg/mL (64 μg/mL for 3 and 8)
E. coli ATCC 25922 = experiment: Antibacterial assay against E. coli; assay type: cell-based, Escherichia coli; conditions: top concentration 96 μg/mL (64 μg/mL for 3 and 8); for MIC: Escherichia coli, ATCC25922, MIC = lowest concentration inhibiting ≥ 95% of growth; for MIC Ec: MIC = lowest concentration inhibiting ≥ 95% of growth
A. baumannii MB5973 = experiment: Antibacterial assay against A. baumannii; assay type: cell-based, Acinetobacter baumannii; conditions: MIC = lowest concentration inhibiting ≥ 95% of growth, top concentration 96 μg/mL (64 μg/mL for 3 and 8); for MIC: Acinetobacter baumannii
A. fumigatus ATCC46645 = experiment: Antifungal assay against A. fumigatus; assay type: cell-based, Aspergillus fumigatus; conditions: A. fumigatus ATCC 46645, MIC = lowest concentration inhibiting ≥ 95% of growth, top concentration 96 μg/mL (64 μg/mL for 3 and 8); for MIC: Aspergillus fumigatus, ATCC46645
[2] = system: human liver adenocarcinoma cell line (HepG2); experiment: Cytotoxicity assay against HepG2; assay type: cell-based; conditions: for pIC50: 10 two-fold dilutions starting at 150, 100 (3, 8) or 30.0 μg/mL (1, 5)
[3] = MRSA MB5393, read-out: MIC MRSA
[4] = Homo sapiens, HepG2, HepG-2 cytotoxicity
[5] = MRSA, read-out: MIC MRSA, MRSA MB5393

Row | Molecule | MIC [1, 3] | MIC (M. tuberculosis H37Ra) | MIC (E. coli ATCC 25922) | MIC (A. baumannii MB5973) | MIC (A. fumigatus ATCC46645) | pIC50 [2, 4] | MIC MRSA ([1]; MRSA MB5393) | MIC Mt (M. tuberculosis H37Ra) | MIC Ec (E. coli ATCC 25922) | MIC Ab (A. baumannii MB5973) | MIC Af (A. fumigatus ATCC46645) | pIC50 ([2]; HepG-2 cytotoxicity) | MIC [1, 5] | growth-inhibitory activity against methicillin-resistant Staphylococcus aureus (in words) ([1]; abstract statement) | growth-inhibitory activity against Mycobacterium tuberculosis (in words) (M. tuberculosis H37Ra; abstract statement) | growth-inhibitory activity against HepG2 (in words) ([2]; abstract statement)
1 | CC1(C)O[C@@]2(C[C@H]3C(C)(C)[C@@H](Cl)CC[C@]3(C)O)C(=O)c3cc(O)cc(O)c3C(=O)[C@@]2(O)C[C@H]1Cl [Compound 4, Napyradiomycin SC] | > 96 µg/mL | 24 to 48 µg/mL (≈ 46.6 to 93.1 µM) | > 96 µg/mL | > 96 µg/mL | > 96 µg/mL | 3.58 |  |  |  |  |  |  |  |  |  | 
2 | CC1(C)OC2=C(CC1Cl)C(=O)c1c(O)cc(O)cc1C2=O (stereo not drawn) [Compound 7, 3-chloro-6,8-dihydroxy-8-α-lapachone] |  |  |  |  |  |  | 48 to 96 µg/mL | 12 to 24 µg/mL | >96 µg/mL | >96 µg/mL | >96 µg/mL | 3.73 |  |  |  | 
3 | COc1cc(O)c2c(c1)C(=O)C1=C(CC(Cl)C(C)(C)O1)C2=O (stereo not drawn) [Compound 8, 3-chloro-6-hydroxy-8-methoxy-α-lapachone] |  |  |  |  |  |  | >64 µg/mL | >64 µg/mL | >64 µg/mL | >64 µg/mL | >64 µg/mL | 4.52 |  |  |  | 
4 | CC1(C)O[C@@]2(C[C@H]3C(C)(C)[C@@H](Cl)CC[C@]3(C)O)C(=O)c3cc(O)cc(O)c3C(=O)[C@@]2(Cl)C[C@H]1Cl [Compound 13, napyradiomycin B4] |  |  |  |  |  |  | 12 to 24 µg/mL | 12 to 24 µg/mL | >96 µg/mL | >96 µg/mL | >96 µg/mL |  |  |  |  | 
5 | napyradiomycin B2 [Compound 14] |  |  |  |  |  |  | 3 to 6 µg/mL | 24 to 48 µg/mL | >96 µg/mL | >96 µg/mL | >96 µg/mL | 4.57 |  |  |  | 
6 | napyradiomycin B5 [Compound 15] |  |  |  |  |  |  | 12 to 24 µg/mL | 24 to 48 µg/mL | >96 µg/mL | >96 µg/mL | >96 µg/mL | 4.40 |  |  |  | 
7 | C=C(C)C(O)CCC(C)=CCC12OC(C)(C)C(O)C=C1C(=O)c1c(O)cc(O)cc1C2=O (stereo not shown) [Compound 1, Napyradiomycin A3] | > 96 µg/mL |  | > 96 µg/mL | > 96 µg/mL |  | < 4.17 |  |  |  |  |  |  |  |  |  | 
8 | CC1=CCC23OC(C)(C)C(Cl)CC2(Cl)C(=O)c2c(cc(O)cc2C3=O)OCC(C)=CCC1 (stereo not shown) [Compound 5, Napyradiomycin D1] | 12 to 24 µg/mL (≈ 25 to 50.1 µM) | 24 to 48 µg/mL (≈ 50.1 to 100 µM) | > 96 µg/mL | > 96 µg/mL |  |  |  |  |  |  |  |  | 3 to 48 µg/mL (≈ 6.26 to 100 µM) | significant growth-inhibitory activity | significant growth-inhibitory activity | significant growth-inhibitory activity
9 | napyradiomycin A2a [Compound 11] |  |  |  |  |  |  | 12 to 24 µg/mL | 48 to 96 µg/mL | >96 µg/mL | >96 µg/mL | >96 µg/mL | 4.52 |  |  |  | 
10 | CC1(C)O[C@@]2(C[C@H]3C(C)(C)[C@@H](Cl)CC[C@]3(C)O)C(=O)c3cc(O)cc(O)c3C(=O)C2=C[C@H]1Cl [Compound 2, Napyradiomycin B7a] | 48 µg/mL (≈ 96.5 µM) | 12 to 24 µg/mL (≈ 24.1 to 48.2 µM) | > 96 µg/mL | > 96 µg/mL | > 96 µg/mL | > 4.30 |  |  |  |  |  | 4.38 | 3 to 48 µg/mL (≈ 6.03 to 96.5 µM) |  |  | 
11 | napyradiomycin B6 [Compound 9] |  |  |  |  |  |  | 48 to 96 µg/mL | 12 to 24 µg/mL | >96 µg/mL | >96 µg/mL | >96 µg/mL | 4.15 |  |  |  | 
12 | CC1(C)O[C@@]2(C[C@H]3C(C)(C)[C@@H](Cl)CC[C@]3(C)O)C(=O)c3cc(O)cc(O)c3C(=O)C2=C[C@@H]1Cl [Compound 3, Napyradiomycin B7b] | > 64 µg/mL | > 64 µg/mL | > 64 µg/mL | > 64 µg/mL | > 64 µg/mL | 3.96 |  |  |  |  |  |  |  |  |  | 
13 | CC(=CCCC(C)=CCC12OC(C)(C)C(Cl)CC1(Cl)C(=O)c1c(O)cc(O)cc1C2=O)CO (stereo not shown) [Compound 10, 18-hydroxynapyradiomycin A1] |  |  |  |  |  |  | 48 to 96 µg/mL | >96 µg/mL | >96 µg/mL | >96 µg/mL | >96 µg/mL | 4.19 |  |  |  | 
14 | napyradiomycin A2b [Compound 12] |  |  |  |  |  |  | 12 to 24 µg/mL | 48 to 96 µg/mL | >96 µg/mL | >96 µg/mL | >96 µg/mL | 4.54 |  |  |  | 
